Where two headings read alike, the source gives them in different places.
What was measured:
Format in all cases: in vivo
[1] = tested on: Zymoseptoria tritici; experiment: Leaf blotch of wheat (SEPTTR), disease control on wheat seedlings; conditions: low volume application at 121.5 g/H
In short: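 Z. tritici spores were inoculated onto wheat seedlings (Yuma, first leaf emerged) either before or after treatment. Treatment was an automated spray to run-off of acetone/Triton X-100 water solutions, or a track spray of EC formulations with 0.1% Trycol 5941. Plants were held in dew chambers at 20 °C and then a greenhouse at 20 °C. First-leaf severity (0–100%) was converted to percent control against untreated plants.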

[2] = tested on: Phakopsora pachyrhizi; experiment: Asian soybean rust (PHAKPA), disease control on soybean seedlings; conditions: High volume application at 25 ppm
In short: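 Two-week-old Williams 82 soybean seedlings were sprayed to run-off with compound in acetone/water (1:9) containing 0.011% Tween 20. Inoculation was 3 days before (curative) or 1 day after (protectant) treatment, followed by 24 h dark dew at 22 °C, 100% RH, then 23 °C; disease severity scored on sprayed leaves.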

[3] = tested on: Puccinia triticina; experiment: Wheat brown rust (PUCCRT), disease control on wheat seedlings; conditions: low volume application at 121.5 g/H
In short: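 Compounds in acetone, diluted with nine volumes of water containing 110 ppm Triton X-100, sprayed to run-off on first-leaf Yuma wheat seedlings; track-spray tests used EC formulations with 0.1% Trycol 5941. Puccinia triticina spores applied before or after treatment. Overnight dark dew room at 22° C, 100% humidity, then greenhouse at 24° C.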

[4] = 24 h, 1 Day Protectant, read-out: SEPTTR disease control, 1DP, LV activity
[5] = 72 h, 3 Day Curative, read-out: SEPTTR disease control, 3DC, LV activity
[6] = 24 h, 1 Day Protectant, read-out: PHAKPA 1DP disease control rating
[7] = 72 h, 3 Day Curative, read-out: PHAKPA 3DC disease control rating
[8] = 24 h, 1 Day Protectant, read-out: PUCCRT disease control, 1DP, LV activity
[9] = 72 h, 3 Day Curative, read-out: PUCCRT disease control, 3DC, LV activity

COc1cc(F)ccc1[C@H](C1CCCC1)[C@H](C)OC(=O)[C@H](C)NC(=O)c1nccc(OC)c1OC(C)=O [Compound 228]
< 80%: pest or weed control at 121.5 g/ha [1, 5] | pest or weed control at 25 ppm [2, 7] | pest or weed control at 121.5 g/ha [3, 9]
> 80%: pest or weed control at 121.5 g/ha [1, 4] | pest or weed control at 25 ppm [2, 6] | pest or weed control at 121.5 g/ha [3, 8]

COc1ccnc(C(=O)N[C@@H](C)C(=O)O[C@@H](C)[C@H](c2ccc(F)cc2C)C2CCC2)c1OC(C)=O [Compound 189]
> 80%: pest or weed control at 121.5 g/ha [1, 4] | pest or weed control at 121.5 g/ha [1, 5] | pest or weed control at 25 ppm [2, 6] | pest or weed control at 121.5 g/ha [3, 8]
< 80%: pest or weed control at 25 ppm [2, 7] | pest or weed control at 121.5 g/ha [3, 9]

COc1ccnc(C(=O)N[C@@H](C)C(=O)O[C@@H](C)[C@H](c2ccc(OC(C)C)cc2)C(C)C)c1OC(C)=O [Compound 377]
< 80%: pest or weed control at 121.5 g/ha ([1]; 24 h, 1 Day Protectant, wheat leaf blotch, read-out: SEPTTR 1DP disease control, LV activity) | pest or weed control at 121.5 g/ha ([1]; 72 h, 3 Day Curative, wheat leaf blotch, read-out: SEPTTR 3DC disease control, LV activity) | pest or weed control at 25 ppm [2, 6] | pest or weed control at 25 ppm [2, 7] | pest or weed control at 121.5 g/ha ([3]; 72 h, 3 Day Curative, wheat brown rust, read-out: PUCCRT 3DC disease control, LV activity)
> 80%: pest or weed control at 121.5 g/ha ([3]; 24 h, 1 Day Protectant, wheat brown rust, read-out: PUCCRT 1DP disease control, LV activity)

COc1ccnc(C(=O)N[C@@H](C)C(=O)O[C@@H](C)[C@@H](c2ccc(C)cc2C)C2CCCC2)c1OCOC(C)=O [Compound 205]
> 80%: pest or weed control at 121.5 g/ha [3, 8]
< 80%: pest or weed control at 121.5 g/ha [1, 4] | pest or weed control at 121.5 g/ha [1, 5] | pest or weed control at 25 ppm [2, 6]
< 0%: pest or weed control at 25 ppm [2, 7] | pest or weed control at 121.5 g/ha [3, 9]

COc1ccnc(C(=O)N[C@@H](C)C(=O)O[C@@H](C)[C@H](c2ccc(C)cc2C)C(C)C)c1OC(C)=O [Compound 362]
> 80%: pest or weed control at 121.5 g/ha [1, 4] | pest or weed control at 121.5 g/ha [1, 5] | pest or weed control at 25 ppm [2, 6] | pest or weed control at 25 ppm [2, 7] | pest or weed control at 121.5 g/ha [3, 8] | pest or weed control at 121.5 g/ha [3, 9]

COc1cc(F)ccc1[C@H](C(C)C)[C@H](C)OC(=O)[C@H](C)NC(=O)c1nccc(OC)c1OC(C)=O [Compound 232]
> 80%: pest or weed control at 121.5 g/ha [1, 4] | pest or weed control at 25 ppm [2, 6] | pest or weed control at 25 ppm [2, 7] | pest or weed control at 121.5 g/ha [3, 8] | pest or weed control at 121.5 g/ha [3, 9]
< 80%: pest or weed control at 121.5 g/ha [1, 5]

COc1cc(F)ccc1[C@@H](C1CCCCC1)[C@H](C)OC(=O)[C@H](C)NC(=O)c1nccc(OC)c1OCOC(C)=O [Compound 233]
< 80%: pest or weed control at 25 ppm [2, 6] | pest or weed control at 25 ppm [2, 7] | pest or weed control at 121.5 g/ha [3, 8] | pest or weed control at 121.5 g/ha [3, 9]
> 80%: pest or weed control at 121.5 g/ha [1, 4] | pest or weed control at 121.5 g/ha [1, 5]

COc1ccnc(C(=O)N[C@@H](C)C(=O)O[C@H](C)[C@H](c2ccc(F)cc2C)C2CCCC2)c1OCOC(C)=O [Compound 198]
< 80%: pest or weed control at 121.5 g/ha [1, 4] | pest or weed control at 121.5 g/ha [1, 5] | pest or weed control at 25 ppm [2, 6] | pest or weed control at 25 ppm [2, 7] | pest or weed control at 121.5 g/ha [3, 8]
< 0%: pest or weed control at 121.5 g/ha [3, 9]

CCC(CC)[C@H](c1ccc(F)cc1OC)[C@H](C)OC(=O)[C@H](C)NC(=O)c1nccc(OC)c1OC(C)=O [Compound 222]
> 80%: pest or weed control at 121.5 g/ha [1, 4] | pest or weed control at 121.5 g/ha [1, 5] | pest or weed control at 25 ppm [2, 6] | pest or weed control at 121.5 g/ha [3, 8]
< 80%: pest or weed control at 25 ppm [2, 7] | pest or weed control at 121.5 g/ha [3, 9]

COc1ccnc(C(=O)N[C@@H](C)C(=O)O[C@@H](C)[C@H](c2ccc(F)cc2C)C2CCCC2)c1OC(C)=O [Compound 184]
< 80%: pest or weed control at 25 ppm [2, 7]
> 80%: pest or weed control at 121.5 g/ha [1, 4] | pest or weed control at 121.5 g/ha [1, 5] | pest or weed control at 25 ppm [2, 6] | pest or weed control at 121.5 g/ha [3, 8] | pest or weed control at 121.5 g/ha [3, 9]

COc1ccnc(C(=O)N[C@@H](C)C(=O)O[C@@H](C)[C@@H](c2ccc(C)cc2C)C2CCC2)c1OCOC(C)=O [Compound 240]
> 80%: pest or weed control at 121.5 g/ha [1, 5] | pest or weed control at 25 ppm [2, 6] | pest or weed control at 121.5 g/ha [3, 8] | pest or weed control at 121.5 g/ha [3, 9]
< 80%: pest or weed control at 121.5 g/ha [1, 4] | pest or weed control at 25 ppm [2, 7]

From patent US20180186742A1, “PICOLINAMIDES AS FUNGICIDES” (Dow AgroSciences LLC, priority 2017, published 2018)
